Experiment [1] can be described thus: Ice recrystallisation inhibition (IRI) SPLAT assay. Conditions: for IRI activity: 30 min at −8° C., relative to PBS control. On the procedure: A series of peptides were tested for IRI activity using a SPLAT assay. Briefly, this involved seeding a large number of small ice crystals, which were annealed for 30 minutes at −8° C., before being photographed. The average crystal size was then measured, relative to a PBS control, with smaller values indicating more IRI activity, FIGS. 3B/1C.
Ice recrystallisation inhibition (IRI) activity was measured using a modified splat assay. A 10 μL sample of polymer dissolved in PBS buffer (pH 7.4) was dropped 1.40 m onto a chilled glass coverslip, resting on a thin aluminium block placed on dry ice. Upon hitting the coverslip, a wafer with diameter of approximately 10 mm and thickness 10 μm was formed instantaneously. The glass coverslip was transferred onto the Linkam cryostage and held at −8° C. under N2 for 30 minutes. Photographs were obtained using an Olympus CX 41 microscope with a UIS-2 20 ×/0.45/∞/0-2/FN22 lens and crossed polarizers (Olympus Ltd, Southend-on-Sea, UK), equipped with a Canon DSLR 500D digital camera. Images were taken of the initial wafer (to ensure that a polycrystalline sample had been obtained) and again after 30 minutes. Image processing was conducting using Image J, which is freely available. In brief, five of the largest ice crystals in the field of view were measured and the single largest length in any axis recorded. The average (mean) of these five measurements was then calculated to find the largest grain dimension along any axis. This was repeated for three individual wafers, and the average (mean) of these three values was calculated to give the mean largest grain size (MLGS). The average value was compared to that of a PBS buffer negative control.

The conditions of experiment [2]: from cited references; cited from earlier work.

No end group written: not given here.

Turning to `O=C(O)[C@@H]1CCCN1` [proline, L-proline], the IRI activity entry in experiment [1] is listed as “no IRI activity”.
In the case of “Nisin A (ITSISLCTPGCKTGALMGCNMKTATCHCSIHVSK; also: lantibiotic, lanthionine rings and dehydro residues not placed; UniProt P13068 24-57, looked up) [a short antimicrobial peptide]”, in experiment [2], the “IRI activity (literature)” value was “pH dependent IRI activity”.
With “PGlu10: poly(glutamic acid) 10-mer (SEQ ID NO: 18), computationally modelled”, the IRI activity entry in experiment [1] was “no IRI activity”.
With poly(glutamic acid) [PGlu110], in experiment [1], the IRI activity result is “no IRI”.
For the compound poly(hydroxyproline), in experiment [2], the “IRI activity (literature)” value was “potent IRI activity”.
For “poly(lysine) (KKKKKKKKKKKKKKKKKKKKKKKKKKKKKKKKKKKKKKKKKKKKKKKKKK; Poly(lysine) with 50 Lys residues) [PLys50]”, in experiment [1], the IRI activity result is recorded as “no IRI”.
As to poly(proline), in experiment [1], the IRI activity result is listed as “significant IRI activity”. Besides, the “IRI activity compared to another polymer” value in experiment [1] (comparison) is listed as “more active than poly(hydroxyproline)”.
As to “poly-L-proline mol wt 1,000-10,000 [PPro10-100]”, in experiment [1], the IRI activity result was “potent inhibition”.

The values above are taken from patent publication US11632948B2, “Recrystallization inhibitor” (THE UNIVERSITY OF WARWICK, priority 2017, dated 2023).
